Source: US11980596B2 (priority 2017, dated 2024)

How the values were obtained:
[1] = tested on: subjects with MDD at imminent risk for suicide; assay type: in vivo, human; conditions: post dose
Description: Transient blood pressure increases peaked for the esketamine group at approximately 40 minutes post dose with the maximum mean increases (across all dosing days) in systolic BP being 8.7 in the placebo group and 16.7 in the esketamine 84 mg group. The maximum mean increases (across all dosing days) in diastolic BP were 7.6 in the placebo group and 11.9 in the esketamine 84 mg group. […] See, FIGS. 46 and 47.

[2] = tested on: patients with treatment-resistant depression (TRD); experiment: MADRS total score, response and remission (Example 7, phase 2 dose-response study); assay type: in vivo, human; conditions: for MADRS: treatment difference relative to placebo: day 15, completers, same treatment 2 weeks; for MADRS: LS mean difference vs placebo, range over dose groups: 28, 56, 84 mg
Description: At the beginning of double-blind Period 1, eligible participants were randomized (3:1:1:1) to intranasal placebo or esketamine 28, 56, or 84 mg, twice weekly (days 1 and 4) based on the first of two computer-generated randomization schedules (Period 1 and Period 2). Randomization was balanced by using randomly permuted blocks and stratified by study center. At the end of Period 1, those randomized to placebo who had moderate-to-severe symptoms (assessed by Quick Inventory of Depressive Symptomatology-Self Report (Trivedi 2016 and Rush, “The 16-item Quick Inventory of Depressive Symptomatology (QIDS) Clinician Rating (QIDS-C) and Self-Report (QIDS-SR): A psychometric evaluation in patients with chronic major depression”, Biol. Psychiatry, 2003, 54(5):573-583) [QIDS-SR16] total score: moderate, 11-16; severe, >16) were re-randomized (1:1:1:1) to intranasal esketamine 28, 56, or 84 mg or placebo, twice weekly (days 8 and 11), while those having mild or no symptoms continued on placebo. To maintain the blind, all participants completed an identical process prior to entry into Period 2, whether or not they were re-randomized. Regardless of response in the double-blind phase, all participants were eligible to enter the optional open-label phase. Esketamine (56 mg) was administered on the first day of the open-label phase (study day 15); subsequent doses could be adjusted (range: 28 to 84 mg) based on investigator's clinical judgment, with administration twice weekly for first 2 weeks, weekly for next 3 weeks, then every 2 weeks thereafter.
Efficacy was assessed with the Montgomery-Asberg Depression Rating Scale (MADRS; Montgomery, “A new depression scale designed to be sensitive to change”, Br. J. Psychiatry, 1979, 134:382-389; Williams, “Development and reliability of a structured interview guide for the Montgomery Asberg Depression Rating Scale (SIGMA)”, Br. J. Psychiatry, 2008, 192(1):52-58) on days 1 (pre-dose and 2 hour post-dose), 2, 8 (pre-dose), 9, and 15, using the structured interview guide (SIGMA). See, Williams 2008.
The primary efficacy endpoint—change from baseline (pre-dose, day 1 in each period) to endpoint (day 8 in each period) in MADRS total score—was analyzed using the analysis of covariance (ANCOVA) model. For Period 1, the model included treatment and country as factors, and baseline MADRS total score as covariate. For Period 2, the model included treatment and country as factors, Period 2 baseline QIDS-SR16 score (moderate or severe), and Period 2 baseline MADRS total score as a continuous covariate.
Given the consistency between Periods 1 and 2 results (Chi 2016), esketamine dose groups were compared to placebo using a combined test on the weighted test statistics for each period in the double-blind treatment phase. A dose-response analysis on primary efficacy endpoint was performed using data combined from both periods. The Multiple Comparison Procedure—Modelling (MCP-Mod) methodology was performed (Williams 2008; Bretz, “Combining multiple comparisons and modeling techniques in dose-response studies”, Biometrics, 2005, 61:738-748).

[3] = tested on: patients with treatment-resistant depression (TRD); experiment: CGI-S (Example 7); assay type: in vivo, human
Description: Overall illness severity was assessed on the Clinical Global Impression of Severity (CGI-S) scale (Guy, “ECDEU Assessment Manual for Psychopharmacology—Revised (DHEW Publ No ADM 76-338)”, Rockville, Md.: U.S. Department of Health, Education, and Welfare, Public Health Service, Alcohol, Drug Abuse, and Mental Health Administration, NIMH Psychopharmacology Research Branch, Division of Extramural Research Programs; 1976, pp 218-222). Participants assessed their severity of anxiety on the Generalized Anxiety Disorder 7-item (GADS-7) Scale (See, Tables 157 and 158). See, Spitzer, “A brief measure for assessing generalized anxiety disorder—the GAD-7”, Arch. Intern. Med., 2006, 166(10): 1092-1097.

[4] = OL endpoint - day 74, Placebo/Esketamine/OL Esketamine
[5] = Period 1, study period endpoint, esketamine 28 mg
[6] = Period 2, 2 hours, esketamine 84 mg
[7] = Period 2, 24 hours, esketamine 84 mg
[8] = Period 2, study period endpoint, esketamine 84 mg
[9] = Week 8 (Follow-up), Placebo/Esketamine/OL Esketamine
[10] = Period 1, esketamine 28 mg intranasal
[11] = Period 1, esketamine 56 mg intranasal
[12] = Period 1, esketamine 84 mg intranasal
[13] = Period 2, esketamine 28 mg intranasal
[14] = Period 2, esketamine 56 mg intranasal
[15] = Period 2, esketamine 84 mg intranasal

CN[C@]1(c2ccccc2Cl)CCCCC1=O [esketamine, (S)-2-(2-chlorophenyl)-2-(methylamino)cyclohexanone]
Blood pressure returning to normal range by [1]: ≤ 2 h | MADRS: treatment difference relative to placebo ([2]; 28 mg): −6.0 | MADRS: treatment difference relative to placebo ([2]; 56 mg): −8.3 | Proportion of responders (MADRS) ([2]; 84 mg, Period 2 endpoint): 50.0% | Remitted (MADRS) ([2]; 84 mg, after 2 weeks of treatment): 40.0% | MADRS response (≥50% improvement), % [2, 4]: 50.0% | Remission (MADRS ≤10): No, % [2, 4]: 60.0% | Remission (MADRS ≤10): Yes, % [2, 4]: 40.0% | MADRS response (≥50% improvement), % ([2]; OL endpoint - day 74, Placebo/Placebo/OL Esketamine): 100% | MADRS Remitters, % ([2]; Period 1, 2 hours, esketamine 84 mg): (25.0) % | MADRS Remitters, % ([2]; Period 1, 24 hours, esketamine 84 mg): (25.0) % | MADRS Remitters, % [2, 5]: (9.1) % | MADRS Responders, % [2, 5]: (9.1) % | MADRS Remitters, % ([2]; Period 1, study period endpoint, esketamine 56 mg): (9.1) % | MADRS Remitters, % ([2]; Period 1, study period endpoint, esketamine 84 mg): (25.0) % | MADRS: LS mean difference vs placebo, range over dose groups ([2]; Period 1): −5.0 to −10.5 | MADRS Remitters, % [2, 6]: (40.0) % | MADRS Responders, % [2, 6]: (40.0) % | MADRS Remitters, % [2, 7]: (20.0) % | MADRS Responders, % [2, 7]: (40.0) % | MADRS Remitters, % [2, 8]: (20.0) % | MADRS Responders, % [2, 8]: (20.0) % | MADRS: LS mean difference vs placebo, range over dose groups ([2]; Period 2): −3.1 to −6.9 | MADRS response (≥50% improvement), % [2, 9]: 25.0% | Remission (MADRS ≤10): No, % [2, 9]: 75.0% | Remission (MADRS ≤10): Yes, % [2, 9]: 25.0% | CGI-S Median (Range) at end point [3, 10]: 4.0 (3, 5) | CGI-S Median Change (Range) [3, 10]: −1.0 (−2, 1) | CGI-S Median (Range) at end point [3, 11]: 4.0 (1, 5) | CGI-S Median Change (Range) [3, 11]: −1.0 (−3, 0) | CGI-S Median (Range) at end point [3, 12]: 4.0 (1, 6) | CGI-S Median Change (Range) [3, 12]: −0.5 (−4, 0) | CGI-S Median (Range) at end point [3, 13]: 4.0 (3, 5) | CGI-S Median Change (Range) [3, 13]: −1.0 (−1, 0) | CGI-S Median (Range) at end point [3, 14]: 5.0 (4, 6) | CGI-S Median Change (Range) [3, 14]: −1.0 (−2, 0) | CGI-S Median (Range) at end point [3, 15]: 4.0 (3, 5) | CGI-S Median Change (Range) [3, 15]: −1.0 (−2, 0) | S-Ketamine QC sample long-term storage stability (at −20° C.): 707 days at −20 °C | S-Ketamine QC sample freeze/thaw stability (freeze (−20° C.)/thaw (room temperature)): 3 freeze (−20° C.)/thaw (room temperature) cycles | S-Ketamine QC sample bench-top stability (room temperature): 18 hours at room temperature
